Assay results as given in ChEMBL document CHEMBL1201861, “Genomics of Drug Sensitity in Cancer screening data, Wellcome Trust Sanger Institute”.
Several values for one entry are separate records, joined by “and”; a condition that tells them apart may be missing. Identical values can stand only once. Where a SMILES comes first, the peptide text is derived from it. The star is where a group is joined. Cbz = O=C(OCc1ccccc1)*

What was measured:
Assay in all cases: cells
DOHH-2 = assay type: functional, cell-based, Homo sapiens;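 further: growth inhibition of human DOHH-2 cells, read out with a cell viability assay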
Description: SANGER: Inhibition of human DOHH-2 cell growth in a cell viability assay.

DU-4475 = assay type: functional, cell-based, Homo sapiens
Description: SANGER: Inhibition of human DU-4475 cell growth in a cell viability assay.

ES4 = assay type: functional, cell-based, Homo sapiens;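 further: growth inhibition of human ES4 cells, read out by a cell viability assay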
Description: SANGER: Inhibition of human ES4 cell growth in a cell viability assay.

HCC2157 = assay type: functional, cell-based, Homo sapiens;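 further: growth inhibition of the cancer cell line, read out as cell viability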
Description: SANGER: Inhibition of human HCC2157 cell growth in a cell viability assay.

HCE-T = assay type: functional, cell-based, Homo sapiens;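 further: cell viability assay read-out, reporting inhibition of HCE-T cell growth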
Description: SANGER: Inhibition of human HCE-T cell growth in a cell viability assay.

HD-MY-Z = assay type: functional, cell-based, Homo sapiens;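 further: growth inhibition of HD-MY-Z cells, read out with a cell viability assay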
Description: SANGER: Inhibition of human HD-MY-Z cell growth in a cell viability assay.

HH = assay type: functional, cell-based, Homo sapiens
Description: SANGER: Inhibition of human HH cell growth in a cell viability assay.

IA-LM = assay type: functional, cell-based; conditions: Homo sapiens;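 further: cell viability assay measuring growth inhibition of human IA-LM cells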
Description: SANGER: Inhibition of human IA-LM cell growth in a cell viability assay.

IST-MES1 = assay type: functional, cell-based, Homo sapiens;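 further: growth inhibition of IST-MES1 cells, measured with a cell viability assay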
Description: SANGER: Inhibition of human IST-MES1 cell growth in a cell viability assay.

IST-SL1 = assay type: functional, cell-based, Homo sapiens;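 further: growth inhibition of human IST-SL1 cells, read out with a cell viability assay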
Description: SANGER: Inhibition of human IST-SL1 cell growth in a cell viability assay.

JAR = assay type: functional, cell-based, Homo sapiens;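 further: growth inhibition of human JAR cells determined with a cell viability assay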
Description: SANGER: Inhibition of human JAR cell growth in a cell viability assay.

JVM-2 = assay type: functional, cell-based, Homo sapiens;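 further: growth inhibition of JVM-2 cells determined by a cell viability assay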
Description: SANGER: Inhibition of human JVM-2 cell growth in a cell viability assay.

KM-H2 = assay type: functional, cell-based, Homo sapiens;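 further: growth inhibition of KM-H2 cells, read out by a cell viability assay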
Description: SANGER: Inhibition of human KM-H2 cell growth in a cell viability assay.

KURAMOCHI = assay type: functional, cell-based, Homo sapiens;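 further: growth inhibition of KURAMOCHI cells, read out with a cell viability assay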
Description: SANGER: Inhibition of human KURAMOCHI cell growth in a cell viability assay.

L-363 = assay type: functional, cell-based, Homo sapiens
Description: SANGER: Inhibition of human L-363 cell growth in a cell viability assay.

LAMA-84 = assay type: functional, cell-based, Homo sapiens;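 further: growth inhibition of LAMA-84 cells, read out with a cell viability assay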
Description: SANGER: Inhibition of human LAMA-84 cell growth in a cell viability assay.

LB2241-RCC = assay type: functional, cell-based, Homo sapiens;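 further: cell viability assay measuring how strongly the cultured human renal carcinoma line is prevented from growing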
Description: SANGER: Inhibition of human LB2241-RCC cell growth in a cell viability assay.

LOX IMVI = assay type: functional, cell-based, Homo sapiens
Description: SANGER: Inhibition of human LOXIMVI cell growth in a cell viability assay.

LS-513 = assay type: functional, cell-based, Homo sapiens
Description: SANGER: Inhibition of human LS-513 cell growth in a cell viability assay.

MHH-PREB-1 = assay type: functional, cell-based, Homo sapiens;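 further: cell viability assay measuring inhibition of proliferation of human MHH-PREB-1 cells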
Description: SANGER: Inhibition of human MHH-PREB-1 cell growth in a cell viability assay.

MONO-MAC-6 = assay type: functional, cell-based, Homo sapiens;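 further: cell viability assay measuring growth inhibition of human MONO-MAC-6 cells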
Description: SANGER: Inhibition of human MONO-MAC-6 cell growth in a cell viability assay.

MV4-11 = assay type: functional, cell-based, Homo sapiens, MV-4-11;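 further: cell viability readout measuring growth inhibition of human MV-4-11 cells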
Description: SANGER: Inhibition of human MV-4-11 cell growth in a cell viability assay.

MZ7-mel = assay type: functional, cell-based, Homo sapiens;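 further: growth inhibition of human MZ7-mel cells, measured by a cell viability assay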
Description: SANGER: Inhibition of human MZ7-mel cell growth in a cell viability assay.

Mo = assay type: functional, cell-based, Homo sapiens
Description: SANGER: Inhibition of human Mo-T cell growth in a cell viability assay.

NCI-H1155 = assay type: functional, cell-based, Homo sapiens;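 further: cell growth inhibition measured by a viability assay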
Description: SANGER: Inhibition of human NCI-H1155 cell growth in a cell viability assay.

NCI-H1299 = assay type: functional, cell-based; conditions: Homo sapiens;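 further: growth inhibition of human NCI-H1299 cells, read out by a cell viability assay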
Description: SANGER: Inhibition of human NCI-H1299 cell growth in a cell viability assay.

NCI-H1650 = assay type: functional, cell-based, Homo sapiens;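 further: growth inhibition of human NCI-H1650 cells measured by a cell viability assay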
Description: SANGER: Inhibition of human NCI-H1650 cell growth in a cell viability assay.

NCI-H226 = assay type: functional, cell-based, Homo sapiens;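 further: cell viability read-out used to gauge growth inhibition of the cells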
Description: SANGER: Inhibition of human NCI-H226 cell growth in a cell viability assay.

NCI-H23 = assay type: functional, cell-based, Homo sapiens;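 further: cell viability assay measuring growth inhibition of NCI-H23 cells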
Description: SANGER: Inhibition of human NCI-H23 cell growth in a cell viability assay.

NCI-H720 = assay type: functional, cell-based, Homo sapiens;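 further: growth inhibition of human NCI-H720 cells determined by a cell viability assay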
Description: SANGER: Inhibition of human NCI-H720 cell growth in a cell viability assay.

NCI-N87 = assay type: functional, cell-based; conditions: Homo sapiens;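 further: growth inhibition of human NCI-N87 cells, read out with a cell viability assay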
Description: SANGER: Inhibition of human NCI-N87 cell growth in a cell viability assay.

SNU-5 = assay type: functional, cell-based, Homo sapiens;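 further: cell viability readout used to measure growth inhibition in human NCI-SNU-5 cells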
Description: SANGER: Inhibition of human NCI-SNU-5 cell growth in a cell viability assay.

NH-12 = assay type: functional, cell-based, Homo sapiens;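 further: growth inhibition of NH-12 cells, read out with a cell viability assay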
Description: SANGER: Inhibition of human NH-12 cell growth in a cell viability assay.

ONS-76 = assay type: functional, cell-based, Homo sapiens;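 further: growth inhibition of human ONS-76 cells, read out with a cell viability assay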
Description: SANGER: Inhibition of human ONS-76 cell growth in a cell viability assay.

OS-RC-2 = assay type: functional, cell-based, Homo sapiens;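 further: growth inhibition of human OS-RC-2 cells, measured by a cell viability assay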
Description: SANGER: Inhibition of human OS-RC-2 cell growth in a cell viability assay.

RPMI-8866 = assay type: functional, cell-based, Homo sapiens
Description: SANGER: Inhibition of human RPMI-8866 cell growth in a cell viability assay.

SBC-1 = assay type: functional, cell-based, Homo sapiens;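 further: cell viability assay measuring growth inhibition of the SBC-1 cell line, IC50 being the concentration that halves growth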
Description: SANGER: Inhibition of human SBC-1 cell growth in a cell viability assay.

SCC-15 = assay type: functional, cell-based, Homo sapiens;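 further: growth inhibition of SCC-15 cells, read out with a cell viability assay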
Description: SANGER: Inhibition of human SCC-15 cell growth in a cell viability assay.

SK-N-FI = assay type: functional, cell-based, Homo sapiens;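 further: cell viability assay measuring growth inhibition of human SK-N-FI cells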
Description: SANGER: Inhibition of human SK-N-FI cell growth in a cell viability assay.

SK-PN-DW = assay type: functional, cell-based, Homo sapiens;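 further: growth inhibition measured with a viability assay on these cells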
Description: SANGER: Inhibition of human SK-PN-DW cell growth in a cell viability assay.

SK-UT-1 = assay type: functional, cell-based, Homo sapiens;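 further: growth inhibition of SK-UT-1 cells, measured by a cell viability assay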
Description: SANGER: Inhibition of human SK-UT-1 cell growth in a cell viability assay.

697 = assay type: functional, cell-based, Homo sapiens
Description: SANGER: Inhibition of human 697 cell growth in a cell viability assay.

8-MG-BA = assay type: functional, cell-based, Homo sapiens;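 further: growth inhibition of 8-MG-BA cells, read out with a cell viability assay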
Description: SANGER: Inhibition of human 8-MG-BA cell growth in a cell viability assay.

A498 = assay type: functional, cell-based, Homo sapiens;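 further: growth inhibition of human A498 cells, read out with a cell viability assay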
Description: SANGER: Inhibition of human A498 cell growth in a cell viability assay.

ACN = assay type: functional, cell-based, Homo sapiens;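 further: growth inhibition of the human ACN cell line, read out via cell viability testing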
Description: SANGER: Inhibition of human ACN cell growth in a cell viability assay.

BB30-HNC = assay type: functional, cell-based, Homo sapiens;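 further: growth inhibition of the cultured cell line, read out by a cell viability assay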
Description: SANGER: Inhibition of human BB30-HNC cell growth in a cell viability assay.

C8166 = assay type: functional, cell-based, Homo sapiens;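 further: growth inhibition of human C8166 cells measured by a cell viability assay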
Description: SANGER: Inhibition of human C8166 cell growth in a cell viability assay.

no-10 = assay type: functional, cell-based, Homo sapiens;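 further: growth inhibition of no-10 cells, read out with a cell viability assay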
Description: SANGER: Inhibition of human no-10 cell growth in a cell viability assay.

CCRF-CEM = assay type: functional, cell-based, Homo sapiens;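 further: inhibition of CCRF-CEM cell growth, measured by a cell viability assay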
Description: SANGER: Inhibition of human CCRF-CEM cell growth in a cell viability assay.

COc1cc(N2CCC(N3CCN(C)CC3)CC2)ccc1Nc1ncc(Cl)c(Nc2ccccc2S(=O)(=O)C(C)C)n1 [TAE-684]
IC50 (DOHH-2; Homo sapiens, DOHH-2): 312 nM
IC50 (DU-4475; Homo sapiens, DU-4475): 1460 nM
IC50 (ES4; Homo sapiens, ES4): 491 nM
IC50 (HCC2157; Homo sapiens, HCC2157): 1470 nM
IC50 (HCE-T; Homo sapiens, HCE-T): 1090 nM
IC50 (HD-MY-Z; Homo sapiens, HD-MY-Z): > 2000 nM
IC50 (HH; Homo sapiens, HH): > 2000 nM
IC50 (IA-LM): > 2000 nM
IC50 (IST-MES1; Homo sapiens, IST-MES1): 988 nM
IC50 (IST-SL1; Homo sapiens, IST-SL1): > 2000 nM
IC50 (JAR; Homo sapiens, JAR): > 2000 nM
IC50 (JVM-2; Homo sapiens, JVM-2): > 2000 nM
IC50 (KM-H2; Homo sapiens, KM-H2): > 2000 nM
IC50 (KURAMOCHI; Homo sapiens, KURAMOCHI): 1700 nM
IC50 (L-363; Homo sapiens, L-363): 824 nM
IC50 (LAMA-84; Homo sapiens, LAMA-84): > 2000 nM
IC50 (LB2241-RCC; Homo sapiens, LB2241-RCC): 988 nM
IC50 (LOX IMVI; Homo sapiens, LOX IMVI): > 2000 nM
IC50 (LS-513; Homo sapiens, LS-513): > 2000 nM
IC50 (MHH-PREB-1; Homo sapiens, MHH-PREB-1): > 2000 nM
IC50 (MONO-MAC-6; Homo sapiens, MONO-MAC-6): 333 nM
IC50 (MV4-11; Homo sapiens, MV4-11): 394 nM
IC50 (MZ7-mel; Homo sapiens, MZ7-mel): > 2000 nM
IC50 (Mo; Homo sapiens, Mo): > 2000 nM
IC50 (NCI-H1155; Homo sapiens, NCI-H1155): > 2000 nM
IC50 (NCI-H1299): > 2000 nM
IC50 (NCI-H1650; Homo sapiens, NCI-H1650): > 2000 nM
IC50 (NCI-H226; Homo sapiens, NCI-H226): > 2000 nM
IC50 (NCI-H23; Homo sapiens, NCI-H23): > 2000 nM
IC50 (NCI-H720; Homo sapiens, NCI-H720): 1360 nM
IC50 (NCI-N87): > 2000 nM
IC50 (SNU-5; Homo sapiens, SNU-5): > 2000 nM
IC50 (NH-12; Homo sapiens, NH-12): > 2000 nM
IC50 (ONS-76; Homo sapiens, ONS-76): > 2000 nM
IC50 (OS-RC-2; Homo sapiens, OS-RC-2): > 2000 nM
IC50 (RPMI-8866; Homo sapiens, RPMI-8866): > 2000 nM
IC50 (SBC-1; Homo sapiens, SBC-1): > 2000 nM
IC50 (SCC-15; Homo sapiens, SCC-15): > 2000 nM
IC50 (SK-N-FI; Homo sapiens, SK-N-FI): > 2000 nM
IC50 (SK-PN-DW; Homo sapiens, SK-PN-DW): 1260 nM
IC50 (SK-UT-1; Homo sapiens, SK-UT-1): > 2000 nM
IC50 (697; Homo sapiens): 432 nM
IC50 (8-MG-BA; Homo sapiens, 8-MG-BA): > 2000 nM
IC50 (A498; Homo sapiens, A498): > 2000 nM
IC50 (ACN; Homo sapiens, ACN): > 2000 nM
IC50 (BB30-HNC; Homo sapiens, BB30-HNC): 1130 nM
IC50 (C8166; Homo sapiens, C8166): > 2000 nM
IC50 (no-10; Homo sapiens): > 2000 nM
IC50 (CCRF-CEM; Homo sapiens, CCRF-CEM): > 2000 nM

CC(C)C[C@@H](C=O)NC(=O)[C@H](CC(C)C)NC(=O)[C@H](CC(C)C)NC(=O)OCc1ccccc1 [MG-132] (Cbz-Leu-Leu-Leu-aldehyde)
IC50 (DOHH-2; dohh-2): > 1000 nM
IC50 (DU-4475; du-4475): 197 nM and > 1000 nM
IC50 (ES4; es4): > 1000 nM
IC50 (HCC2157; hcc2157): > 1000 nM
IC50 (HCE-T; hce-t): > 1000 nM
IC50 (HD-MY-Z; hd-my-z): 233 nM and > 1000 nM
IC50 (HH; Homo sapiens, HH): 329 nM
IC50 (HH; hh): 571 nM
IC50 (IA-LM): > 1000 nM
IC50 (IST-MES1; ist-mes1): > 1000 nM
IC50 (IST-SL1; ist-sl1): 201 nM and > 1000 nM
IC50 (JAR; jar): > 1000 nM
IC50 (JVM-2; jvm-2): > 1000 nM
IC50 (KM-H2; Homo sapiens, KM-H2): > 1000 nM
IC50 (KM-H2; km-h2): > 1000 nM
IC50 (KURAMOCHI; kuramochi): > 1000 nM
IC50 (L-363; Homo sapiens, L-363): > 1000 nM
IC50 (L-363; l-363): > 1000 nM
IC50 (LAMA-84; lama-84): 219 nM and > 1000 nM
IC50 (LB2241-RCC; lb2241-rcc): 142 nM and 871 nM
IC50 (LOX IMVI; Homo sapiens, LOX IMVI): > 1000 nM
IC50 (LOX IMVI; lox imvi): > 1000 nM
IC50 (LS-513; ls-513): 668 nM and > 1000 nM
IC50 (MHH-PREB-1; mhh-preb-1): > 1000 nM
IC50 (MONO-MAC-6; Homo sapiens, MONO-MAC-6): 536 nM
IC50 (MONO-MAC-6; mono-mac-6): 718 nM
IC50 (MV4-11; mv-4-11): > 1000 nM
IC50 (MZ7-mel; mz7-mel): 264 nM and > 1000 nM
IC50 (Mo; mo): 518 nM and > 1000 nM
IC50 (NCI-H1155; nci-h1155): > 1000 nM
IC50 (NCI-H1299): > 1000 nM
IC50 (NCI-H1650; nci-h1650): > 1000 nM
IC50 (NCI-H226; Homo sapiens, NCI-H226): > 1000 nM
IC50 (NCI-H226; nci-h226): > 1000 nM
IC50 (NCI-H23; nci-h23): > 1000 nM
IC50 (NCI-H720; nci-h720): > 1000 nM
IC50 (NCI-N87): > 1000 nM
IC50 (SNU-5; snu-5): 695 nM and > 1000 nM
IC50 (NH-12; nh-12): > 1000 nM
IC50 (ONS-76; ons-76): 129 nM and 899 nM
IC50 (OS-RC-2; os-rc-2): 480 nM and > 1000 nM
IC50 (RPMI-8866; Homo sapiens, RPMI-8866): > 1000 nM
IC50 (RPMI-8866; rpmi-8866): > 1000 nM
IC50 (SBC-1; Homo sapiens, SBC-1): > 1000 nM
IC50 (SBC-1; sbc-1): > 1000 nM
IC50 (SCC-15; scc-15): > 1000 nM
IC50 (SK-N-FI; sk-n-fi): > 1000 nM
IC50 (SK-PN-DW; sk-pn-dw): 232 nM and > 1000 nM
IC50 (SK-UT-1; sk-ut-1): 220 nM and > 1000 nM
IC50 697: > 1000 nM
IC50 (8-MG-BA; 8-mg-ba): 398 nM and > 1000 nM
IC50 (A498; Homo sapiens, A498): > 1000 nM
IC50 (A498; a498): > 1000 nM
IC50 (ACN; acn): 226 nM and > 1000 nM
IC50 (BB30-HNC; bb30-hnc): > 1000 nM
IC50 (C8166; c8166): > 1000 nM
IC50 (no-10): 89.1 nM and 608 nM
IC50 (CCRF-CEM; ccrf-cem): 477 nM and > 1000 nM
